Source: US20130252944A1, “NOVEL FUSED PYRAZOLE DERIVATIVES AND THEIR USE AS ALLOSTERIC MODULATORS OF METABOTROPIC GLUTAMATE RECEPTORS” (priority 2010, published 2013)

target: T1, recombinant human mGluR4a receptors (Homo sapiens, UniProt Q14833); test: Fluorescent cell based Ca2+ mobilization assay (FLIPR) on HEK-293 cells expressing human mGluR4; settings: positive allosteric modulation in presence of EC25 glutamate; HEK-293 hmGluR4; mean of at least three independent experiments in duplicate; read-out: Ca^2+ Flux (mean EC50)
T1 construct: expressed in transfected cells
T1 sequence (Q14833 33-912): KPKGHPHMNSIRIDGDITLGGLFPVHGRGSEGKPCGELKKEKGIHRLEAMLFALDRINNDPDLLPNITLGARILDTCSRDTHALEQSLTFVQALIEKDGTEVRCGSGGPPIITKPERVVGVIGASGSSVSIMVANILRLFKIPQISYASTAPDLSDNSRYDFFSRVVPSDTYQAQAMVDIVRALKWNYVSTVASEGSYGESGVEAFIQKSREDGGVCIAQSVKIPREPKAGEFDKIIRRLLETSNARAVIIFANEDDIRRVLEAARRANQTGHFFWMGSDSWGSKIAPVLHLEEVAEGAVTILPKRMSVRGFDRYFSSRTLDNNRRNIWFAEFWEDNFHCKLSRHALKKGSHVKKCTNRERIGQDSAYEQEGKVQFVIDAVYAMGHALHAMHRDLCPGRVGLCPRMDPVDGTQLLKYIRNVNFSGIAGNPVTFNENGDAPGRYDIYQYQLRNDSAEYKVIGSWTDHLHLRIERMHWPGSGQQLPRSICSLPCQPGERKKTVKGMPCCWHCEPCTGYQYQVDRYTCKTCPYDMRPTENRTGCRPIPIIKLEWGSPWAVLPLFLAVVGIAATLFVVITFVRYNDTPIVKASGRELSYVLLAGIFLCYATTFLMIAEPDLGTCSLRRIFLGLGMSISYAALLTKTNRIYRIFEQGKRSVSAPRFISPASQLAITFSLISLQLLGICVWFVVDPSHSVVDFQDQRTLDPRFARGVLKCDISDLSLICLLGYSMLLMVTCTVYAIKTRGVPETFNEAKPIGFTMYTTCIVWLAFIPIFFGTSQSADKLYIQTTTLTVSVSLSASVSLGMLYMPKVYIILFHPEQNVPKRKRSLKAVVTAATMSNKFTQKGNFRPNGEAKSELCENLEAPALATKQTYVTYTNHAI
From the text: mGluR4 Assay on HEK-Expressing Human mGluR4
The compounds of the present invention are positive allosteric modulators of mGluR4 receptor. Their activity was examined on recombinant human mGluR4a receptors by detecting changes in intracellular Ca^2+concentration, using the fluorescent Ca^2+-sensitive dye Fluo4-(AM) and a Fluorometric Imaging Plate Reader (FLIPR, Molecular Devices, Sunnyvale, Calif.).
The cDNA encoding the human metabotropic glutamate receptor (hmGluR4), (accession number NM_000841.1, NCBI Nucleotide database browser), was subcloned into an expression vector containing also the hygromycin resistance gene. In parallel, the cDNA encoding a G protein allowing redirection of the activation signal to intracellular calcium flux was subcloned into a different expression vector containing also the puromycin resistance gene. Transfection of both these vectors into HEK293 cells with PolyFect reagent (Qiagen) according to supplier's protocol, and hygromycin and puromycin treatment allowed selection of antibiotic resistant cells which had integrated stably one or more copies of the plasmids. Positive cellular clones expressing hmGluR4 were identified in a functional assay measuring changes in calcium fluxes in response to glutamate or selective known mGluR4 orthosteric agonists and antagonists.
HEK-293 cells expressing hmGluR4 were maintained in media containing DMEM, dialyzed Fetal Calf Serum (10%), Glutamax™ (2 mM), Penicillin (100 units/mL), Streptomycin (100 μg/mL), Geneticin (100 μg/mL) and Hygromycin-B (40 μg/mL) and puromycin (1 μg/mL) at 37° C./5% CO2.
Human mGluR4 HEK-293 cells were plated out 24 hours prior to FLIPR^384 assay in black-walled, clear-bottomed, poly-L-ornithine-coated 384-well plates at a density of 25,000 cells/well in a glutamine/glutamate free DMEM medium containing foetal bovine serum (10%), penicillin (100 units/mL) and streptomycin (100 μg/mL) at 37° C./5% CO2.
On the day of the assay, the medium was aspirated and the cells were loaded with a 3 μM solution of Fluo4-AM (LuBioScience, Lucerne, Switzerland) in 0.03% pluronic acid. After 1 hour at 37° C./5% CO2, the non incorporated dye was removed by washing cell plate with the assay buffer and the cells were left in the dark at room temperature for […] before testing. All assays were performed in a pH=7.4 buffered-solution containing 20 mM HEPES, 143 mM NaCl, 6 mM KCl, 1 mM MgSO4, 1 mM CaCl2, 0.125 mM sulfapyrazone and 0.1% glucose.
After 10 s of basal fluorescence recording, various concentrations of the compounds of the invention were added to the cells. Changes in fluorescence levels were first monitored for 180 s in order to detect any agonist activity of the compounds. Then the cells were stimulated by an EC25 glutamate concentration for an additional 110 s in order to measure enhancing activities of the compounds of the invention. EC25 glutamate concentration is the concentration giving 25% of the maximal glutamate response.
The concentration-response curves of representative compounds of the present invention were generated using the Prism GraphPad software (Graph Pad Inc, San Diego, USA). The curves were fitted to a four-parameter logistic equation:
(Y=Bottom+(Top−Bottom)/(1+10̂((LogEC50−X)*Hill Slope)
allowing the determination of EC50 values.
The Table 3 below represents the mean EC50 obtained from at least three independent experiments of selected molecules performed in duplicate.

| SMILES | EC50 [nM] |
| --- | --- |
| Cc1cc2[nH]ncc2c2nc(Nc3ccccn3)sc12 [Compound 1-1, (4-Methyl-6H-3-thia-1,6,7-triaza-as-indacen-2-yl)-pyridin-2-yl-amine] | 1000 to 10000 |
| Cc1ccnc(Nc2nc3c(s2)C(C)(C)OC(C)c2n[nH]cc2-3)n1 (stereo not shown) [Compound 1-2, (4-Methyl-pyrimidin-2-yl)-(4,4,6-trimethyl-6,8-dihydro-4H-5-oxa-3-thia-1,7,8-triaza-cyclopenta[e]azulen-2-yl)-amine] | 1000 to 10000 |
| Cc1ccnc(Nc2nc3c(s2)CCC(O)c2[nH]ncc2-3)n1 (stereo not shown) [Compound 1-3, 2-(4-Methyl-pyrimidin-2-ylamino)-4,5,6,7-tetrahydro-3-thia-1,7,8-triaza-cyclopenta[e]azulen-6-ol] | 100 to 1000 |
| Cc1ccnc(Nc2nc3c(s2)C(C)(C)OCc2n[nH]cc2-3)n1 [Compound 1-4, (4,4-Dimethyl-6,8-dihydro-4H-5-oxa-3-thia-1,7,8-triaza-cyclopenta[e]azulen-2-yl)-(4-methyl-pyrimidin-2-yl)-amine] | 100 to 1000 |
| CCCC1Cc2sc(Nc3nccc(C)n3)nc2-c2cn[nH]c21 (stereo not shown) [Compound 1-5, (4-Methyl-pyrimidin-2-yl)-(5-propyl-5,6-dihydro-4H-3-thia-1,6,7-triaza-as-indacen-2-yl)-amine] | 100 to 1000 |
| Cc1ccnc(Nc2nc3c(s2)CCCCc2[nH]ncc2-3)n1 [Compound 1-7, (4-Methyl-pyrimidin-2-yl)-(5,6,7,8-tetrahydro-4H-3-thia-1,8,9-triaza-dicyclopenta[a,c]cycloocten-2-yl)-amine] | 100 to 1000 |
| CCC1OCc2sc(Nc3nccc(C)n3)nc2-c2c[nH]nc21 (stereo not shown) [Compound 1-8, (6-Ethyl-6,8-dihydro-4H-5-oxa-3-thia-1,7,8-triaza-cyclopenta[e]azulen-2-yl)-(4-methyl-pyrimidin-2-yl)-amine] | < 100 |
| Cc1ccnc(Nc2nc3c(s2)CC(C)(C)C(F)(F)c2[nH]ncc2-3)n1 [Compound 1-9, (6,6-Difluoro-5,5-dimethyl-4,5,6,7-tetrahydro-3-thia-1,7,8-triaza-cyclopenta[e]azulen-2-yl)-(4-methyl-pyrimidin-2-yl)-amine] | 100 to 1000 |
| Cc1ccnc(Nc2nc3c(s2)COC(C)(C)c2n[nH]cc2-3)n1 [Compound 1-10, (6,6-Dimethyl-6,8-dihydro-4H-5-oxa-3-thia-1,7,8-triaza-cyclopenta[e]azulen-2-yl)-(4-methylpyrimidin-2-yl)-amine] | < 100 |
| Cc1ccnc(Nc2nc3c(s2)CC(C)Cc2n[nH]cc2-3)n1 (stereo not shown) [Compound 1-11, (4-Methyl-pyrimidin-2-yl)-(5-methyl-4,5,6,8-tetrahydro-3-thia-1,7,8-triaza-cyclopenta[e]azulen-2-yl)-amine] | 100 to 1000 |
| Cc1ccnc(Nc2nc3c(s2)CCC(C)c2n[nH]cc2-3)n1 (stereo not shown) [Compound 1-12, (4-Methyl-pyrimidin-2-yl)-(6-methyl-4,5,6,8-tetrahydro-3-thia-1,7,8-triaza-cyclopenta[e]azulen-2-yl)-amine] | < 100 |
| Cc1ccnc(Nc2nc3c(s2)COC(C(F)(F)F)c2n[nH]cc2-3)n1 (stereo not shown) [Compound 1-13, (4-Methyl-pyrimidin-2-yl)-(6-trifluoromethyl-6,8-dihydro-4H-5-oxa-3-thia-1,7,8-triaza-cyclopenta[e]azulen-2-yl)-amine] | < 100 |
| COc1ccnc(Nc2nc3c(s2)COC(C)c2[nH]ncc2-3)n1 (stereo not shown) [Compound 1-14, (4-Methoxy-pyrimidin-2-yl)-(6-methyl-6,7-dihydro-4H-5-oxa-3-thia-1,7,8-triaza-cyclopenta[e]azulen-2-yl)-amine] | < 100 |
| COC1Cc2n[nH]cc2-c2nc(Nc3nccc(C)n3)sc2C1 (stereo not shown) [Compound 1-15, (5-Methoxy-4,5,6,8-tetrahydro-3-thia-1,7,8-triaza-cyclopenta[e]azulen-2-yl)-(4-methyl-pyrimidin-2-yl)-amine] | 100 to 1000 |
| Cc1ccnc(Nc2nc3c(s2)COC(C(C)C)c2n[nH]cc2-3)n1 (stereo not shown) [Compound 1-16, (6-Isopropyl-6,8-dihydro-4H-5-oxa-3-thia-1,7,8-triaza-cyclopenta[e]azulen-2-yl)-(4-methyl-pyrimidin-2-yl)-amine] | < 100 |
| Cc1ccnc(Nc2nc3c(s2)CCOc2n[nH]cc2-3)n1 [Compound 1-17, (4,8-Dihydro-5H-6-oxa-3-thia-1,7,8-triaza-cyclopenta[e]azulen-2-yl)-(4-methyl-pyrimidin-2-yl)-amine] | < 100 |
| Cc1ccnc(Nc2nc3c(s2)CC(F)(F)Cc2n[nH]cc2-3)n1 [Compound 1-18, (5,5-Difluoro-4,5,6,8-tetrahydro-3-thia-1,7,8-triaza-cyclopenta[e]azulen-2-yl)-(4-methyl-pyrimidin-2-yl)-amine] | < 100 |
| CCC1OCc2sc(Nc3ncc(F)cn3)nc2-c2c[nH]nc21 (stereo not shown) [Compound 1-19, (6-Ethyl-6,8-dihydro-4H-5-oxa-3-thia-1,7,8-triaza-cyclopenta[e]azulen-2-yl)-(5-fluoro-pyrimidin-2-yl)-amine] | < 100 |
| CCC1OCc2sc(Nc3nsc(C)n3)nc2-c2c[nH]nc21 (stereo not shown) [Compound 1-20, (6-Ethyl-6,8-dihydro-4H-5-oxa-3-thia-1,7,8-triaza-cyclopenta[e]azulen-2-yl)-(5-methyl-[1,2,4]thiadiazol-3-yl)-amine] | < 100 |
| CCC1OCc2sc(Nc3ncc(F)c(C)n3)nc2-c2cn[nH]c21 (stereo not shown) [Compound 1-21, (6-Ethyl-6,7-dihydro-4H-5-oxa-3-thia-1,7,8-triaza-cyclopenta[e]azulen-2-yl)-(5-fluoro-4-methyl-pyrimidin-2-yl)-amine] | < 100 |
| CCC1OCc2sc(Nc3nccc(OC)n3)nc2-c2cn[nH]c21 (stereo not shown) [Compound 1-22, (6-Ethyl-6,7-dihydro-4H-5-oxa-3-thia-1,7,8-triaza-cyclopenta[e]azulen-2-yl)-(4-methoxy-pyrimidin-2-yl)-amine] | < 100 |
| CC1OCc2sc(Nc3cccc(F)n3)nc2-c2c[nH]nc21 (stereo not shown) [Compound 1-23, (6-Fluoro-pyridin-2-yl)-(6-methyl-6,8-dihydro-4H-5-oxa-3-thia-1,7,8-triaza-cyclopenta[e]azulen-2-yl)-amine] | < 100 |
| COC1CCc2sc(Nc3nccc(C)n3)nc2-c2cn[nH]c21 (stereo not shown) [Compound 1-24, (6-Methoxy-4,5,6,7-tetrahydro-3-thia-1,7,8-triaza-cyclopenta[e]azulen-2-yl)-(4-methyl-pyrimidin-2-yl)-amine] | < 100 |
| CC(C)C1OCc2sc(Nc3cccc(F)n3)nc2-c2cn[nH]c21 (stereo not shown) [Compound 1-26, (6-Fluoro-pyridin-2-yl)-(6-isopropyl-6,7-dihydro-4H-5-oxa-3-thia-1,7,8-triaza-cyclopenta[e]azulen-2-yl)-amine] | 100 to 1000 |
| Cc1ccnc(Nc2nc3c(s2)CCC(C(F)(F)F)c2[nH]ncc2-3)n1 (stereo not shown) [Compound 1-27, (4-Methyl-pyrimidin-2-yl)-(6-trifluoromethyl-4,5,6,7-tetrahydro-3-thia-1,7,8-triaza-cyclopenta[e]azulen-2-yl)-amine] | 100 to 1000 |
| CC(C)C1OCc2sc(Nc3ncc(F)cn3)nc2-c2cn[nH]c21 (stereo not shown) [Compound 1-28, (5-Fluoro-pyrimidin-2-yl)-(6-isopropyl-6,7-dihydro-4H-5-oxa-3-thia-1,7,8-triaza-cyclopenta[e]azulen-2-yl)-amine] | < 100 |
| Cc1nc(Nc2nc3c(s2)COC(C(C)C)c2[nH]ncc2-3)ncc1F (stereo not shown) [Compound 1-29, (5-Fluoro-4-methyl-pyrimidin-2-yl)-(6-isopropyl-6,7-dihydro-4H-5-oxa-3-thia-1,7,8-triaza-cyclopenta[e]azulen-2-yl)-amine] | 100 to 1000 |
| Cc1nc(Nc2nc3c(s2)C(=O)CCc2n[nH]cc2-3)ncc1F [Compound 1-30, 2-(5-Fluoro-4-methyl-pyrimidin-2-ylamino)-6,8-dihydro-5H-3-thia-1,7,8-triaza-cyclopenta[e]azulen-4-one] | 1000 to 10000 |
